How the values were obtained:
[1] = molecular target: T1, HDAC1 (Homo sapiens, UniProt Q13547); assay: HDAC1 enzyme activity inhibition (HDAC1 fluorimetric drug discovery assay kit); type: biochemical; conditions: 37° C., 60 minutes; tested at 100, 1000 and 10000 nM
T1 construct: purchased Enzolifesciences BML-AK511
Description: (§1) 1. Experiment on Activities in HDAC Enzymes (HDAC1 and HDAC6)
(§2) Assays were performed using a HDAC1 fluorimetric drug discovery assay kit (Enzolifesciences: BML-AK511) and a HDAC6 human recombinant (Calbiochem: 382180). The assay mixture of the kit was treated with each of the compounds of the Examples at concentrations 100, 1000 and 10000 nM for HDAC1 assay and 0.1, 1, 10, 100 and 1000 nM for HDAC6 assay. The treated assay mixture was allowed to react at 37° C. for 60 minutes, and then was treated with a developer and allowed to stand at 37° C. for 30 minutes, followed by quantification of the fluorescence. In Table 17, lower HDAC6 values (μM) indicate higher HDAC6 inhibitory activities of the compounds. Also, because selective HDAC6 inhibitors should not inhibit HDAC1 (μM), higher HDAC1 values indicate higher HDAC6 selectivity of the compounds.

[2] = molecular target: T2, HDAC6 human recombinant (Homo sapiens, UniProt Q9UBN7); assay: HDAC6 enzyme activity inhibition (fluorimetric, in vitro); type: biochemical; conditions: 37° C., 60 minutes; tested at 0.1, 1, 10, 100 and 1000 nM
T2 construct: purchased Calbiochem 382180
T2 sequence (Q9UBN7 1-1215): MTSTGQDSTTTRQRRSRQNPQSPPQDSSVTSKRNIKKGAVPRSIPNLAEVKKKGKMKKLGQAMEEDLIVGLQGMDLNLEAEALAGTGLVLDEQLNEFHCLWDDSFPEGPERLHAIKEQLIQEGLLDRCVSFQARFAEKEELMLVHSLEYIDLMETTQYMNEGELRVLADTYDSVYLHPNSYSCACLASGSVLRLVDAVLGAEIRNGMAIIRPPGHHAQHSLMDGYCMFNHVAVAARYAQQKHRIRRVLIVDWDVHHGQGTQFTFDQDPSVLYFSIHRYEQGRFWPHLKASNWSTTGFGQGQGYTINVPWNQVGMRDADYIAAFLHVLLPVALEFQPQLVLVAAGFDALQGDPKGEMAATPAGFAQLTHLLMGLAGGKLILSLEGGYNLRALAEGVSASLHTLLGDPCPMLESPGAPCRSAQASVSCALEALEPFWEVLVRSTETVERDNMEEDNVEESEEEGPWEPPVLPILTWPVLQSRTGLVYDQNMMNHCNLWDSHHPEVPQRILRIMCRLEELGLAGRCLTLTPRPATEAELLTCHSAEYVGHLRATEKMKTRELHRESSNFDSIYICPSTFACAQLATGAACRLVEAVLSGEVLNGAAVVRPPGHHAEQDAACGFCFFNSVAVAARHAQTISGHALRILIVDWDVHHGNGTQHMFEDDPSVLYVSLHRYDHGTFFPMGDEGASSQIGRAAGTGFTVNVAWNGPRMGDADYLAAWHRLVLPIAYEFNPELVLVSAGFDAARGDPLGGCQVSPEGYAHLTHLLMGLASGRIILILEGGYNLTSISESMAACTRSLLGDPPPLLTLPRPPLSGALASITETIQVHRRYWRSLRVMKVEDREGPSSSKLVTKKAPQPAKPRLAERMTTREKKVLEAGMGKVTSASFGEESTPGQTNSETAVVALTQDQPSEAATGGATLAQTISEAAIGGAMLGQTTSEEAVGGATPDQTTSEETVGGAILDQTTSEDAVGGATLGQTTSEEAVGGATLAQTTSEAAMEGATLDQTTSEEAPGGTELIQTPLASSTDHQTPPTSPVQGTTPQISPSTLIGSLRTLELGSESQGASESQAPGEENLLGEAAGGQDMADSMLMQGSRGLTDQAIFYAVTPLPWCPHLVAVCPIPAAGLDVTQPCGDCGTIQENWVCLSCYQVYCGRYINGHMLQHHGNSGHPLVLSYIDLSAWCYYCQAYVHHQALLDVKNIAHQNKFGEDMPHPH
Description: as §1, §2

T1 sequence (Q13547 whole entry): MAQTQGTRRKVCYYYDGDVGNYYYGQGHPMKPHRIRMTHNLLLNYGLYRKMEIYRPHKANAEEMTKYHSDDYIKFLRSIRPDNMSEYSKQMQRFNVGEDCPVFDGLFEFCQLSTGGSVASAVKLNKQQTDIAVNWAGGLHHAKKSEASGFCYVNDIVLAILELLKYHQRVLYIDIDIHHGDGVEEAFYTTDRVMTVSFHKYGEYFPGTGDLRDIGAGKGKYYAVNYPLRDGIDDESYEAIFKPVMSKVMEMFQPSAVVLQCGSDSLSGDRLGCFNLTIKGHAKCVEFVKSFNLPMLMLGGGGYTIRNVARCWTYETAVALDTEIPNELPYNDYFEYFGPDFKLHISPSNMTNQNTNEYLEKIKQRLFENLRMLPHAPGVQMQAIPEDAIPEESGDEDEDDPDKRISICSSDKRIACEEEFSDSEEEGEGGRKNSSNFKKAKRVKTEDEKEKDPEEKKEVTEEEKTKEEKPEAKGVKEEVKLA

| Structure (SMILES) | IC50 [1] [nM] | IC50 [2] [nM] |
| --- | --- | --- |
| Cc1c(Cc2ccc(C(=O)NO)cc2)c2ccccc2n1CC1CCN(CC2(F)CCN(CC(C)(C)O)CC2)CC1 [Compound 613, 4-((1-((1-((4-fluoro-1-(2-hydroxy-2-methylpropyl)piperidin-4-yl)methyl)piperidin-4-yl)methyl)-2-methyl-1H-indol-3-yl)methyl)-N-hydroxybenzamide] | 6740 | 69 |
| Cc1c(Cc2ccc(C(=O)NO)cc2)c2ccccc2n1CC1CCN(CC2(F)CCN(CC(C)(C)F)CC2)CC1 [Compound 615, 4-((1-((1-((4-Fluoro-1-(2-fluoro-2-methylpropyl)piperidin-4-yl)methyl)piperidin-4-yl)methyl)-2-methyl-1H-indol-3-yl)methyl)-N-hydroxybenzamide] | > 10000 | 7 |
| Cc1c(Cc2ccc(C(=O)NO)cc2)c2ccccc2n1CC1CCN(Cc2cc(F)c(F)cc2F)CC1 [Compound 619, N-hydroxy-4-((2-methyl-1-((1-(2,4,5-trifluorobenzyl)piperidin-4-yl)methyl)-1H-indol-3-yl)methyl)benzamide] | > 10000 | 770 |
| Cc1c(Cc2ccc(C(=O)NO)cc2)c2ccccc2n1CC1CCN(Cc2ccccc2F)CC1 [Compound 620, 4-((1-((1-(2-Fluorobenzyl)piperidin-4-yl)methyl)-2-methyl-1H-indol-3-yl)methyl)-N-hydroxybenzamide] | > 10000 | 306 |
| CC(C)(F)CN1CCC(Cn2c(-c3cc(F)cc(F)c3)c(Cc3ccc(C(=O)NO)cc3)c3ccccc32)CC1 [Compound 626, 4-((2-(3,5-Difluorophenyl)-1-((1-(2-fluoro-2-methylpropyl)piperidin-4-yl)methyl)-1H-indol-3-yl)methyl)-N-hydroxybenzamide] | > 10000 | 587 |
| Cc1c(Cc2ccc(C(=O)NO)cc2)c2ccccc2n1CC1CCN(Cc2cccc(F)c2)CC1 [Compound 631, 4-((1-((1-(3-Fluorobenzyl)piperidin-4-yl)methyl)-2-methyl-1H-indol-3-yl)methyl)-N-hydroxybenzamide] | > 10000 | 1360 |
| Cc1c(Cc2ccc(C(=O)NO)cc2)c2ccccc2n1CCCN1CCN(CC(C)(C)F)CC1 [Compound 640, 4-((1-(3-(4-(2-Fluoro-2-methylpropyl)piperazin-1-yl)propyl)-2-methyl-1H-indol-3-yl)methyl)-N-hydroxybenzamide] | 7600 | 115 |
| Cc1c(Cc2ccc(C(=O)NO)cc2)c2ccccc2n1CC1CCN(CC2(F)CCN(S(C)(=O)=O)CC2)CC1 [Compound 696, 4-((1-((1-((4-Fluoro-1-(methylsulfonyl)piperidin-4-yl)methyl)piperidin-4-yl)methyl)-2-methyl-1H-indol-3-yl)methyl)-N-hydroxybenzamide] | > 10000 | 123 |
| Cc1c(Cc2ccc(C(=O)NO)cc2)c2ccccc2n1CC1CCN(CC2(F)CCCCC2)CC1 [Compound 698, 4-((1-((1-((1-Fluorocyclohexyl)methyl)piperidin-4-yl)methyl)-2-methyl-1H-indol-3-yl)methyl)-N-hydroxybenzamide] | > 10000 | 430 |
| Cc1c(Cc2ccc(C(=O)NO)cc2)c2ccccc2n1CC1CCN(CC(C)(C)F)C1 (centres unmarked) [Compound 713, 4-((1-((1-(2-Fluoro-2-methylpropyl)pyrrolidin-3-yl)methyl)-2-methyl-1H-indol-3-yl)methyl)-N-hydroxybenzamide] | > 10000 | 246 |
| Cc1c(Cc2ccc(C(=O)NO)cc2)c2ccccc2n1CC1CCN(CC2(C(F)(F)F)CCC2)CC1 [Compound 728, N-hydroxy-4-((2-methyl-1-((1-((1-(trifluoromethyl)cyclobutyl)methyl)piperidin-4-yl)methyl)-1H-indol-3-yl)methyl)benzamide] | > 10000 | 1190 |

The next molecules have a lower IC50 [1] than those just listed; values first:

| IC50 [1] [nM] | IC50 [2] [nM] | Structure (SMILES) |
| --- | --- | --- |
| 1480 | 28 | Cc1c(Cc2ccc(C(=O)NO)cc2)c2ccccc2n1CC1CCN(Cc2ccccn2)CC1 [Compound 623, N-hydroxy-4-((2-methyl-1-((1-(pyridin-2-ylmethyl)piperidin-4-yl)methyl)-1H-indol-3-yl)methyl)benzamide] |
| 5010 | 107 | CC(C)(F)CN1CCC(Cn2c(-c3ccncc3)c(Cc3ccc(C(=O)NO)cc3)c3ccccc32)CC1 [Compound 624, 4-((1-((1-(2-Fluoro-2-methylpropyl)piperidin-4-yl)methyl)-2-(pyridin-4-yl)-1H-indol-3-yl)methyl)-N-hydroxybenzamide] |
| 5720 | 71 | CC(C)(F)CN1CCC(Cn2c(-c3cncnc3)c(Cc3ccc(C(=O)NO)cc3)c3ccccc32)CC1 [Compound 625, 4-((1-((1-(2-Fluoro-2-methylpropyl)piperidin-4-yl)methyl)-2-(pyrimidin-5-yl)-1H-indol-3-yl)methyl)-N-hydroxybenzamide] |
| 1790 | 63 | Cc1c(Cc2ccc(C(=O)NO)cc2)c2ccccc2n1CC1CCN(Cc2cccnc2)CC1 [Compound 632, N-hydroxy-4-((2-methyl-1-((1-(pyridin-3-ylmethyl)piperidin-4-yl)methyl)-1H-indol-3-yl)methyl)benzamide] |
| 1760 | 75 | Cc1c(Cc2ccc(C(=O)NO)cc2)c2ccccc2n1CCN1C[C@@H](C)N(CC(C)(C)F)[C@@H](C)C1 [Compound 633, 4-((1-(2-((3S,5R)-4-(2-fluoro-2-methylpropyl)-3,5-dimethylpiperazin-1-yl)ethyl)-2-methyl-1H-indol-3-yl)methyl)-N-hydroxybenzamide] |
| 4980 | 76 | Cc1c(Cc2ccc(C(=O)NO)cc2)c2ccccc2n1CCCCN1CCN(CC(C)(C)F)CC1 [Compound 639, 4-((1-(4-(4-(2-Fluoro-2-methylpropyl)piperazin-1-yl)butyl)-2-methyl-1H-indol-3-yl)methyl)-N-hydroxybenzamide] |
| 4580 | 28 | Cc1c(Cc2ccc(C(=O)NO)cc2)c2ccccc2n1CC1CCN(CC2(C)COC2)CC1 [Compound 643, N-hydroxy-4-((2-methyl-1-((1-((3-methyloxetan-3-yl)methyl)piperidin-4-yl)methyl)-1H-indol-3-yl)methyl)benzamide] |
| 832 | 13 | Cc1c(Cc2ccc(C(=O)NO)cc2)c2ccccc2n1CC1CCN(CC2(F)CCN(C)CC2)CC1 [Compound 679, 4-((1-((1-((4-Fluoro-1-methylpiperidin-4-yl)methyl)piperidin-4-yl)methyl)-2-methyl-1H-indol-3-yl)methyl)-N-hydroxybenzamide] |
| 802 | 37 | Cc1c(Cc2ccc(C(=O)NO)cc2)c2ccccc2n1CC1CCN(CC2(F)CCN(C(C)C)CC2)CC1 [Compound 681, 4-((1-((1-((4-Fluoro-1-isopropylpiperidin-4-yl)methyl)piperidin-4-yl)methyl)-2-methyl-1H-indol-3-yl)methyl)-N-hydroxybenzamide] |
| 6100 | 334 | CC(C)(F)CN1CCC(Cn2cc(C(O)c3ccc(C(=O)NO)cc3)c3cccnc32)CC1 (centres unmarked) [Compound 747, 4-((1-((1-(2-Fluoro-2-methylpropyl)piperidin-4-yl)methyl)-1H-pyrrolo[2,3-b]pyridin-3-yl)(hydroxy)methyl)-N-hydroxybenzamide] |
| 3880 | 140 | CC(C)(F)CN1CCC(Cn2cc(Cc3ccc(C(=O)NO)cc3)c3cccnc32)CC1 [Compound 748, 4-((1-((1-(2-Fluoro-2-methylpropyl)piperidin-4-yl)methyl)-1H-pyrrolo[2,3-b]pyridin-3-yl)methyl)-N-hydroxybenzamide] |

— patent US20160355475A1, “NOVEL INDOLE DERIVATIVE COMPOUND AND PHARMACEUTICAL COMPOSITION COMPRISING THE SAME” (CHONG KUN DANG PHARMACEUTICAL CORP., priority 2014, published 2016)
